Measured values published in the supplement of paper PMC13380429.
Where a name gives a salt, the structure may show the parent alone.

Key:
Conditions in all cases: 72 h
[1] = test system: Caco-2; experiment: drug sensitivity score (DSS) for viability; higher = more toxic; extreme values may be limits of the assay
[2] = test system: U2OS; experiment: as above
[3] = test system: Calu-3; experiment: as above
[4] = test system: HepG2; experiment: as above
[5] = test system: Caco-2; experiment: cell viability relative to DMSO; higher = less toxic
[6] = test system: U2OS; experiment: as above
[7] = test system: Calu-3; experiment: as above
[8] = test system: HepG2; experiment: as above
[9] = test system: Caco-2; experiment: relative viability EC50 (midpoint between 100% and the lowest measured viability); higher = less toxic
[10] = test system: U2OS; experiment: as above
[11] = test system: Calu-3; experiment: as above
[12] = test system: HepG2; experiment: as above
[13] = test system: Vero E6; experiment: drug sensitivity score (DSS) for viability; higher = more toxic; extreme values may be limits of the assay
[14] = test system: Vero E6; experiment: cell viability relative to DMSO; higher = less toxic

SMILES	drug sensitivity score [1]	drug sensitivity score [2]	drug sensitivity score [3]	drug sensitivity score [4]	cell viability ([5]; 1 nM) [%]	cell viability ([5]; 10 nM) [%]	cell viability ([5]; 100 nM) [%]	cell viability ([5]; 1000 nM) [%]	cell viability ([5]; 10000 nM) [%]	cell viability ([6]; 1 nM) [%]	cell viability ([6]; 10 nM) [%]	cell viability ([6]; 100 nM) [%]	cell viability ([6]; 1000 nM) [%]	cell viability ([6]; 10000 nM) [%]	cell viability ([7]; 1 nM) [%]	cell viability ([7]; 10 nM) [%]	cell viability ([7]; 100 nM) [%]	cell viability ([7]; 1000 nM) [%]	cell viability ([7]; 10000 nM) [%]	cell viability ([8]; 1 nM) [%]	cell viability ([8]; 10 nM) [%]	cell viability ([8]; 100 nM) [%]	cell viability ([8]; 1000 nM) [%]	cell viability ([8]; 10000 nM) [%]	relative viability EC50 [9] [µM]	relative viability EC50 [10] [µM]	relative viability EC50 [11] [µM]	relative viability EC50 [12] [µM]	drug sensitivity score [13]	cell viability ([14]; 1 nM) [%]	cell viability ([14]; 10 nM) [%]	cell viability ([14]; 100 nM) [%]	cell viability ([14]; 1000 nM) [%]	cell viability ([14]; 10000 nM) [%]
Cc1c(N)cccc1Cn1ccc(OCCc2cccs2)cc1=O	0	0	0	0	91.2	91.6	91.1	98.5	84.3	99.5	101	95.4	97.1	95	95.9	100	106	102	93.4	93.3	104	94.1	99.8	93.2	> 10	> 10	> 10	> 10	–	–	–	–	–	–
Cc1cccc2c1CC[C@H](CN1CCC(c3c(Cl)cccc3Cl)CC1)C[C@@H]2O	4.7	2.8	4.2	5.5	93.9	95.8	91.3	78.3	58.1	102	106	95.2	94.2	62.1	93.8	106	89.1	83.8	51.2	104	102	93.3	86.5	38.5	–	–	–	1.65	2.2	99.2	104	95	90.2	70
CCCCCCN(CCCCCC)C(=O)Cc1c(-c2ccc(Cl)cc2)[nH]c2ccc(Cl)cc12 [FGIN-1-43]	0.5	0	0	0	101	102	101	93.5	86.8	98.4	103	103	104	95.2	91.5	106	99.4	101	103	104	94.9	106	98.2	97	> 10	> 10	> 10	> 10	–	–	–	–	–	–
CS(=O)(=O)c1ccc(-c2nnc(/C=C/c3nnc(-c4ccc(C#N)cc4)o3)n2-c2ccccc2Cl)nc1 [G007-LK]	2.6	1.4	11.1	0.1	104	108	93.1	83.1	94.1	94.7	98	91.8	85.8	83.5	105	93.4	67.1	66	77.2	107	106	101	92.8	89.5	> 10	> 10	–	> 10	7.5	99.2	105	95.1	61.7	57.8
COc1ccc(C2(CNC(=O)c3ccc(NC(=O)c4ccco4)cc3)CCOCC2)cc1 [JW-55]	0	0	–	0	101	91.6	97.8	92.1	93.6	103	95.9	97.8	95.2	90.8	–	–	–	–	–	100	117	94.9	102	89.3	> 10	> 10	–	> 10	1.6	103	108	97.3	102	62.6
CN1CCC(NC(=O)c2cc(-c3c(O)cc(O)cc3Oc3ccc([N+](=O)[O-])cc3)on2)CC1 [NMS-E973]	8.3	13.6	7	23.6	99.1	97.8	101	61.3	33.7	94.2	103	99.5	28.2	3.7	93.7	101	90.4	68.4	44	108	101	55	0.9	0.9	0.874	0.65	0.669	0.108	1.4	109	100	106	108	62.2
CN(C)CC/C=C1/c2ccccc2COc2ccc(CC(=O)O)cc21 [Olopatadine hydrochloride (Opatanol)]	–	0	0	0	–	–	–	–	–	–	–	–	–	–	–	–	–	–	–	–	–	–	–	–	–	–	–	–	0	–	–	–	–	–
c1ccc(C(NCc2cccnc2)(c2ccccc2)c2ccccc2)cc1 [UCL-2077]	0	0	0	0	101	103	96.7	103	91.4	96.9	98.5	101	106	103	96.7	86.1	89.6	94.2	94.8	97.4	104	97.3	92.6	94.6	> 10	> 10	> 10	> 10	–	–	–	–	–	–
